Reference: PMC6259308, “Preparation and Properties of New Co-Crystals of Ibandronate with Gluco- or Galactopyranoside Derivatives” (Molecules, 2010)

Tests used:
[1] = cited from earlier work
[2] = In vitro screening of absorption (PAMPA experiments); assay type: in vitro ADME
Experimental: The permeability of ibandronate (as a control sample) and samples 1-3, 6 and 7 was tested. To retain interactions of both components in the solution it is recommended to increase the concentration of the counterion in the applied mixture. Therefore samples 1-3, 6 and 7 with the addition of sixfold quantity of phenyl-β-D-galactopyranoside to the co-crystal solution were also evaluated.
The permeability of generated co-crystals was evaluated in vitro, using a vertical PAMPA (Parallel Artificial Membrane Permeability Assay) system (BD GentestTMPre-Coated PAMPA Plate System, 96 wells, http://www.bdbeurope.com). The donor samples were prepared by dissolving the tested potential co-crystals in 0.01 M HCl, and than pH was adjusted by bicarbonate buffer to pH 7.4. The control sample was prepared in the same manner from ibandronate standards. A carbonate buffer saline (physiological solution) with pH 7.4 was used as a receptor phase. About 0.5 h before the experiment the PAMPA system was taken out from the freezer and warmed up to the ambient temperature. The receptor phase (200 μL/well) was pipetted into the upper wells. The donor phase was pipetted into the lower ones (300 μL/well). After the incubation time (5 h) 10 μL of the acceptor phase was taken from each well and mixed with physiological solution (990 μL). At least five determinations were performed. […]

Structure (SMILES): CCCCCN(C)CCC(O)(P(=O)([O-])O)P(=O)(O)O.[Na+] [IBN monosodium salt, sodium hydrogen {1-hydroxy-3-[methyl(pentyl)amino]-1-phosphonopropyl}phosphonate]
- Solubility in organic solvents ([1]; organic solvents): practically insoluble
- Solubility in water ([1]; water): freely soluble
- Absorption in PAMPA (in words, relative to ibandronate control) ([2]; PAMPA, pH 7.4, 5 h): highest absorption
- Concentration in acceptor solutions of PAMPA plates, Conc. ([2]; donor and receptor phase pH 7.4, incubation 5 h, calculated from 5 experiments, samples 1a-7a with sixfold quantity of phenyl-β-D-galactopyranoside added to the co-crystal solution): 2.4 µg/mL
